Data: PubChem BioAssay AID248 (DTP/NCI, 2004)
Values joined by “and” are separate entries in the source; they are usually repeats but may differ in a detail not shown here. Identical values can stand only once. Toxic doses and inconclusive results are not listed.

System: L1210 leukemia ip in BDF1 mice, survival T/C
Experiment: NCI In Vivo Anticancer Drug Screen. Data for tumor model L1210 Leukemia (intraperitoneal) in B6D2F1 (BDF1) mice
Conditions: endpoint: mean survival time, higher = longer survival
Method in brief: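 Each compound was tested against a transplantable tumor grown in mice. The endpoint was survival, with treated animals benchmarked against vehicle controls as a simple ratio.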

[1] = dose: 50.0 mg/kg/injection, schedule: Q01DX009 (ip), vehicle: saline with Tween-80
[2] = dose: 100.0 mg/kg/injection, schedule: Q01DX009 (ip), vehicle: saline with Tween-80
[3] = dose: 200.0 mg/kg/injection, schedule: Q01DX009 (ip), vehicle: saline with Tween-80
[4] = dose: 100.0 mg/kg/injection, schedule: Q04DX003 (ip), vehicle: saline with Tween-80
[5] = dose: 200.0 mg/kg/injection, schedule: Q04DX003 (ip), vehicle: saline with Tween-80
[6] = dose: 100.0 mg/kg/injection, schedule: Q01DX001 (ip), vehicle: steriod suspending solution
[7] = dose: 200.0 mg/kg/injection, schedule: Q01DX001 (ip), vehicle: steriod suspending solution
[8] = dose: 400.0 mg/kg/injection, schedule: Q01DX001 (ip), vehicle: steriod suspending solution
[9] = dose: 100.0 mg/kg/injection, schedule: Q04DX003 (ip), vehicle: saline
[10] = dose: 200.0 mg/kg/injection, schedule: Q04DX003 (ip), vehicle: saline
[11] = dose: 100.0 mg/kg/injection, schedule: Q01DX009 (ip), vehicle: saline
[12] = dose: 400.0 mg/kg/injection, schedule: Q01DX009 (ip), vehicle: saline
[13] = dose: 100.0 mg/kg/injection, schedule: Q01DX001 (ip), vehicle: saline
[14] = dose: 200.0 mg/kg/injection, schedule: Q01DX001 (ip), vehicle: saline
[15] = dose: 400.0 mg/kg/injection, schedule: Q01DX001 (ip), vehicle: saline
[16] = dose: 100.0 mg/kg/injection, schedule: Q04DX003 (ip), vehicle: Klucel (hydroxypropylcellulose) (HPC)
[17] = dose: 200.0 mg/kg/injection, schedule: Q04DX003 (ip), vehicle: Klucel (hydroxypropylcellulose) (HPC)
[18] = dose: 100.0 mg/kg/injection, schedule: Q01DX009 (ip), vehicle: Klucel (hydroxypropylcellulose) (HPC)
[19] = dose: 200.0 mg/kg/injection, schedule: Q01DX009 (ip), vehicle: Klucel (hydroxypropylcellulose) (HPC)
[20] = dose: 400.0 mg/kg/injection, schedule: Q01DX009 (ip), vehicle: Klucel (hydroxypropylcellulose) (HPC)

In the case of CSc1ncnc2c1ncn2CO, the T/C (dose: 30.0 mg/kg/injection, schedule: Q01DX009 (ip), vehicle: Klucel (hydroxypropylcellulose) (HPC)) is reported as 113 % of control, the T/C (dose: 46.0 mg/kg/injection, schedule: Q01DX009 (ip), vehicle: carboxymethylcellulose (CMC)) is reported as 122 % of control and the T/C (dose: 55.0 mg/kg/injection, schedule: Q01DX009 (ip), vehicle: saline) is reported as 119 % of control. For the same compound, the T/C (dose: 60.0 mg/kg/injection, schedule: Q01DX009 (ip), vehicle: Klucel (hydroxypropylcellulose) (HPC)) was 116 % of control, the T/C (dose: 110.0 mg/kg/injection, schedule: Q01DX001 (ip), vehicle: saline) was 115 % of control and the T/C (dose: 120.0 mg/kg/injection, schedule: Q01DX009 (ip), vehicle: Klucel (hydroxypropylcellulose) (HPC)) was 109 % of control. For the same compound, the T/C (dose: 125.0 mg/kg/injection, schedule: Q01DX009 (ip), vehicle: saline) was 164 % of control, the T/C (dose: 165.0 mg/kg/injection, schedule: Q01DX001 (ip), vehicle: saline) was 120 % of control and the T/C (dose: 250.0 mg/kg/injection, schedule: Q01DX001 (ip), vehicle: saline) was 120 % of control.

With COC(c1ccccc1)(c1ccccc1)C(C)O (stereo unspecified) the T/C [1] was 87 % of control, the T/C [2] was 97 % of control and the T/C [3] was 103 % of control.

NC(=O)c1cc(C(N)=O)cc([N+](=O)[O-])c1 was tested, and the T/C [1] was 101 % of control, the T/C [2] was 101 % of control and the T/C [4] was 100 % of control. For the same compound, the T/C [5] was 96 % of control.

NC(=O)c1cncc(C(N)=O)c1 was tested, and the T/C (dose: 100.0 mg/kg/injection, schedule: Q04DX002 (ip), vehicle: saline) was 103 % of control, the T/C (dose: 200.0 mg/kg/injection, schedule: Q04DX002 (ip), vehicle: saline) was 95 % of control and the T/C (dose: 400.0 mg/kg/injection, schedule: Q04DX002 (ip), vehicle: saline) was 100 % of control.

With CC1(C)OC2OC(COC(=O)c3ccc([N+](=O)[O-])cc3)C(OC(=O)c3ccc([N+](=O)[O-])cc3)C2O1 (stereo unspecified) the T/C [6] was 87 % of control, the T/C [7] was 95 % of control and the T/C [8] was 104 % of control.

In the case of CC(C)(C)c1cc(CN2CCCC(O)C2)c(O)c(-c2ccccc2)c1 (stereo unspecified), the T/C [9] is reported as 98 % of control and the T/C [10] is reported as 98 % of control.

With CC(NC(=O)Cc1ccccc1)C(=O)NN (stereo unspecified) the T/C [11] was 100 % of control, the T/C (dose: 200.0 mg/kg/injection, schedule: Q01DX009 (ip), vehicle: saline) was 102 % of control and the T/C [12] was 91 % of control.

In the case of O=C1C=C(c2ccccc2)c2cccc3cccc1c23, the T/C (dose: 50.0 mg/kg/injection, schedule: Q01DX001 (ip), vehicle: Klucel (hydroxypropylcellulose) (HPC)) is reported as 98 % of control, the T/C (dose: 100.0 mg/kg/injection, schedule: Q01DX001 (ip), vehicle: Klucel (hydroxypropylcellulose) (HPC)) is reported as 87 % of control and the T/C (dose: 200.0 mg/kg/injection, schedule: Q01DX001 (ip), vehicle: Klucel (hydroxypropylcellulose) (HPC)) is reported as 92 % of control.

With CN(C)C(=O)NC1CCc2ccccc21 (stereo unspecified) the T/C (dose: 100.0 mg/kg/injection, schedule: Q01DX001 (ip), vehicle: other) was 95 % of control, the T/C (dose: 200.0 mg/kg/injection, schedule: Q01DX001 (ip), vehicle: other) was 93 % of control and the T/C (dose: 400.0 mg/kg/injection, schedule: Q01DX001 (ip), vehicle: other) was 93 % of control.

For CCCC(C)(C)SSC(C)(C)CCC, the T/C [2] was 98 % of control, the T/C [4] was 103 % of control and the T/C [3] was 96 % of control. The T/C [5] was 110 % of control and the T/C (dose: 400.0 mg/kg/injection, schedule: Q04DX003 (ip), vehicle: saline with Tween-80) was 117 % of control.

For c1ccc(CN2C3c4ccccc4C2c2ccccc23)cc1, the T/C [13] was 96 % of control, the T/C [14] was 112 % of control and the T/C [15] was 95 % of control.

With CCCP(CCC)N(CC)CC the T/C [9] was 107 % of control, the T/C [10] was 101 % of control and the T/C (dose: 400.0 mg/kg/injection, schedule: Q04DX003 (ip), vehicle: saline) was 104 % of control.

In the case of NC(=S)N/N=C/c1ccc2ccccc2c1, the T/C (dose: 50.0 mg/kg/injection, schedule: Q01DX001 (ip), vehicle: saline) is reported as 107 % of control, the T/C [13] is reported as 107 % of control and the T/C [14] is reported as 107 % of control. For the same compound, the T/C [15] was 116 % of control.

For OC1CCC(O)C2CCC1S2 (stereo unspecified), the T/C [6] was 87 % of control, the T/C [7] was 92 % of control and the T/C [8] was 103 % of control.

With O=C(O)C(c1ccccc1)N1C(=O)c2ccccc2C1=O (stereo unspecified) the T/C (dose: 50.0 mg/kg/injection, schedule: Q04DX003 (ip), vehicle: Klucel (hydroxypropylcellulose) (HPC)) was 104 % of control, the T/C [16] was 109 % of control and the T/C [17] was 104 % of control.

In the case of Nc1nc(N)c2nc(CNc3ccc(C(=O)NC(CC(=O)O)C(=O)O)cc3)cnc2n1 (stereo unspecified), the T/C (dose: 1.56 mg/kg/injection, schedule: Q01DX Z (ip), vehicle: saline) is reported as 114 % of control, the T/C (dose: 3.12 mg/kg/injection, schedule: Q01DX009 (ip), vehicle: saline) is reported as 110 % of control and the T/C (dose: 3.13 mg/kg/injection, schedule: Q01DX Z (ip), vehicle: saline) is reported as 108 % of control. The T/C (dose: 25.0 mg/kg/injection, schedule: Q01DX009 (ip), vehicle: saline) was 151 % of control, the T/C (dose: 25.0 mg/kg/injection, schedule: Q01DX Z (ip), vehicle: saline) was 172 % of control and the T/C (dose: 50.0 mg/kg/injection, schedule: Q01DX009 (ip), vehicle: saline) was 166 % of control. The T/C (dose: 50.0 mg/kg/injection, schedule: Q01DX Z (ip), vehicle: saline) was 118 % of control, the T/C [11] was 95 % of control and the T/C (dose: 100.0 mg/kg/injection, schedule: Q01DX Z (ip), vehicle: saline) was 114 % of control and 88 % of control. The T/C (dose: 200.0 mg/kg/injection, schedule: Q01DX Z (ip), vehicle: saline) was 95 % of control.

In the case of O=C(c1ccccc1)C1(Br)CCCCC1, the T/C [18] is reported as 96 % of control, the T/C [11] is reported as 95 % of control and the T/C [19] is reported as 96 % of control. For the same compound, the T/C [20] was 93 % of control and the T/C [12] was 101 % of control.

With O=C1NC2CCCCCCC12 (stereo unspecified) the T/C (dose: 100.0 mg/kg/injection, schedule: Q04DX002 (ip), vehicle: saline + alcohol) was 119 % of control, the T/C (dose: 200.0 mg/kg/injection, schedule: Q04DX002 (ip), vehicle: saline + alcohol) was 105 % of control and the T/C (dose: 400.0 mg/kg/injection, schedule: Q04DX002 (ip), vehicle: saline + alcohol) was 105 % of control.

With Cc1ccccc1N=P(c1ccccc1)(c1ccccc1)c1ccccc1 the T/C (dose: 100.0 mg/kg/injection, schedule: Q01DX009 (ip), vehicle: gum acacia) was 100 % of control, the T/C (dose: 100.0 mg/kg/injection, schedule: Q04DX003 (ip), vehicle: gum acacia) was 93 % of control and the T/C (dose: 200.0 mg/kg/injection, schedule: Q01DX009 (ip), vehicle: gum acacia) was 102 % of control. The T/C (dose: 200.0 mg/kg/injection, schedule: Q04DX003 (ip), vehicle: gum acacia) was 90 % of control and the T/C (dose: 400.0 mg/kg/injection, schedule: Q04DX003 (ip), vehicle: gum acacia) was 93 % of control.

For O=[N+]([O-])c1ccc(N=NNc2ccc(N=Nc3ccccc3)cc2)cc1, the T/C (dose: 25.0 mg/kg/injection, schedule: Q01DX009 (ip), vehicle: Klucel (hydroxypropylcellulose) (HPC)) was 91 % of control, the T/C (dose: 25.0 mg/kg/injection, schedule: Q04DX003 (ip), vehicle: other) was 89 % of control and the T/C (dose: 50.0 mg/kg/injection, schedule: Q01DX009 (ip), vehicle: Klucel (hydroxypropylcellulose) (HPC)) was 102 % of control. For the same compound, the T/C (dose: 50.0 mg/kg/injection, schedule: Q04DX003 (ip), vehicle: other) was 95 % of control and the T/C (dose: 100.0 mg/kg/injection, schedule: Q04DX003 (ip), vehicle: other) was 92 % of control.

With N#Cc1ccc2c(c1)Nc1ccccc1S2 the T/C [18] was 101 % of control, the T/C [16] was 103 % of control and the T/C [19] was 99 % of control. For the same compound, the T/C [17] was 92 % of control, the T/C [20] was 89 % of control and the T/C (dose: 400.0 mg/kg/injection, schedule: Q04DX003 (ip), vehicle: Klucel (hydroxypropylcellulose) (HPC)) was 105 % of control.

With CC(=O)OCC1OCOC2C1OC1OCOC12 (stereo unspecified) the T/C (dose: 100.0 mg/kg/injection, schedule: Q04DX002 (ip), vehicle: saline with Tween-80) was 104 % of control, the T/C (dose: 200.0 mg/kg/injection, schedule: Q04DX002 (ip), vehicle: saline with Tween-80) was 104 % of control and the T/C (dose: 400.0 mg/kg/injection, schedule: Q04DX002 (ip), vehicle: saline with Tween-80) was 118 % of control.
